In ChEMBL document CHEMBL5608246, “Membrane-Targeting Amphiphilic Honokiol Derivatives Containing an Oxazole Moiety as Potential Antibacterials against Methicillin-Resistant Staphylococcus aureus” (J Med Chem, 2024):
Active and inactive are the calls of the source. The calls are words filed in the database; no cut-off is given here.

Assays:
[1] = test system: Cell membrane; assay: Induction of membrane disruption in methicillin resistant Staphylococcus aureus 20 assessed as viable cells with intact membrane at 128 ug/ml incubated for 2 hrs by SYTO9/PI staining based flow cytometry analysis (reference value: 98.7%); assay type: cell membranes; details: dose 128.0 µg/ml
[2] = test system: Cell membrane; assay: Induction of membrane depolarization in methicillin resistant Staphylococcus aureus 20 assessed as increase in fluorescence intensity measured at 2 mins interval over 20 mins by DiSC3(5) staining based assay; details: dose 16-64 µg/ml
[3] = Toxicity in Kunming mouse assessed as change in hematocrit level at 20 mg/kg, sc measured after 24 hrs; assay type: organism-based; details: in vivo
[4] = test system: Staphylococcus aureus; assay: Inhibition of proline synthesis in methicillin resistant Staphylococcus aureus N315 at 4 ug/ml incubated for 4 hrs by RNA-sequencing analysis; assay type: functional, organism-based; details: dose 4.0 µg/ml
[5] = Toxicity in Kunming mouse assessed as kidney abnormalities at 10 mg/kg, sc measured after 24 hrs; assay type: organism-based; details: in vivo
[6] = test system: Staphylococcus aureus; assay: Antibacterial activity against methicillin resistant Staphylococcus aureus 20 infected in Kunming mouse skin abscess model assessed as reduction in TNF-alpha level at 5 to 10 mg/kg, sc measured after 2 hrs by ELISA; assay type: functional, organism-based; details: dose 5-10 mg/kg
[7] = test system: Staphylococcus aureus; assay: Antibacterial activity against methicillin resistant Staphylococcus aureus M14 incubated for 16 to 18 hrs by broth dilution method; assay type: functional; details: time 16-18 hrs
[8] = test system: Staphylococcus aureus; assay: Antibacterial activity against methicillin resistant Staphylococcus aureus 20 infected in Kunming mouse skin abscess model assessed as reduction in inflammatory cells in infection sites at 5 to 10 mg/kg, sc measured after 2 hrs; assay type: functional, organism-based; details: dose 5-10 mg/kg
[9] = test system: Cell membrane; assay: Induction of membrane disruption in methicillin resistant Staphylococcus aureus 20 at 16 ug/ml incubated for 4 hrs by DAPI/PI staining based laser confocal microscopic analysis; details: dose 16.0 µg/ml

With `C=CCc1cc(-c2ccc(OCCC[N+](C)(C)CC(=O)NCCCC)c(CC=C)c2)c2oc(-c3c(Cl)cccc3Cl)nc2c1.[Br-]` the Activity [1] was 0%, the Activity [2] was “Dose-Dependent Effect” and the Activity [3] was “Non-Toxic”. For the same molecule, the inhibition [4] was “Active”, the Activity [5] was “Non-Toxic” and the Activity [6] was “Active”. The MIC [7] was 2 µg/mL, the Activity [8] was “Active” and the Activity [9] was “Active”.
